# Reference: the NIST ThermoML archive (doi:10.1016/j.fluid.2012.09.038)
# Numbers after ± are expanded uncertainties.
# Key:
# [1] = 101.33 kPa, Liquid, Vibrating tube method
# [2] = refractive index (Na D-line) (dimensionless); settings: 101.33 kPa, Liquid, Standard Abbe refractometry
mass density ([1]; 298.2 K),refractive index ([2]; 298.2 K),mass density ([1]; 293.2 K),refractive index ([2]; 293.2 K),SMILES
866.7 ± 0.2 kg/m3,1.3975 ± 0.0008,–,–,CC(=O)OCCC(C)C [3-methylbutyl ethanoate]
–,–,887.9 ± 0.2 kg/m3,1.4049 ± 0.0008,CC(=O)CCC(C)C [5-methyl-2-hexanone]
–,1.3324 ± 0.0008,–,–,O [water]
